# Data as given in patent US20230103554A1, “TNFa SIGNALING [sequence] TUMOR-PROMOTING INFLAMMATION THAT CAN BE TARGETED TO THERAPY” (Baylor College of Medicine, priority 2020, published 2023).
# Experiments:
# [1] = system: murine CD31; experiment: Murine CD31 immunofluorescence of xenograft tumors (angiogenesis); assay type: in vivo, mouse; settings: CHLA-255-luc/monocyte tumors
# Text: (FIG. 17A) Tumors recovered from mice in FIG. 16 were snap frozen in OTC media, thin sectioned, and stained for murine CD31 expression (red) and DAPI counterstain (blue). Results shown are representative images from five fields of view (FOVs) per tumor, with five tumors per group. Scale bar 50 μm. (FIG. 17B) Total number of CD31+ regions per FOV with box and whisker plot showing quartiles±range (Ctrl n=15, Etan n=25). (FIG. 17C) Size of each CD31+ area quantified per FOV; shown is median CD31+ area per FOV with box and whisker plot showing quartiles±range (Ctrl n=15, Etan n=25) (FIG. 17D) Longest distance across each CD31+ area (Max Feret distance) per FOV; shown is median distance per FOV with box and whisker plot showing quartiles±range (Ctrl n=15, Etan n=25). (FIG. 17E) Eukaryotic mRNA-seq was performed on tumor samples, and mouse transcripts were excluded from analysis by XenoFilterR program. Differentially regulated genes were identified using two-fold expression difference and adjusted P value<0.05 as cutoffs.
# Tumors from in vivo experiments were snap-frozen in OTC Media (Tissue-Tek, VWR) and cryo-sectioned into 5 μm thin sections (Texas Children's Hospital Histology Core, Houston, Tex.). Samples were fixed and permeabilized in ice-cold acetone for 10 minutes at −20 C and blocked in TBS containing 5% normal goat serum (CST) and 1% BSA (Sigma) for 2 hours at RT. Rat anti-mouse CD31 primary antibody (Invitrogen, clone 390) was diluted 1:10 in staining buffer (TBS, 1% NGS, 1% BSA) overnight at 4 C. […] Slides were counterstained with 1 μg/mL DAPI (BD Biosciences) for five minutes and mounted with fluorescence mounting media (Fluoromount G, Invitrogen). […] Images were processed and analyzed using FIJI/ImageJ software (NIH). To quantify CD31+ staining, images were thresholded (default, 1800 MIN, Infinity MAX), converted to binary, and analyzed using the FIJI/ImageJ “Analyze Particle” function excluding regions smaller than 25 μm2. […]
# [2] = system: NF-κB signaling in NB cells; experiment: Intracellular IκBα in NB population of co-culture (PhosFlow flow cytometry); assay type: cell-based, human
# Procedure: Monocytes were directly cultured with wild-type or TNF, TNFR1, TNFR2 KO NB cell lines in ULA plates for 24 hours. Activation of NF-kB in monocytes and NB was measured by flow cytometry and cytokine production measured by ELISA from co-culture supernatant. To evaluate the contact-dependence of monocyte activation by NB, monocytes were cultured in ULA plates with seven-day NB conditioned medium mixed 1:1 with complete monocyte medium for 24 hours and analyzed for IL-6 production. To assess the growth advantage of NB cultured with monocytes, NB-luc cell lines and monocytes were seeded in tissue culture-treated white 96-well plates (1:1 ratio) and cultured for four days. Luminescence was measured using a TECAN Spark plate reader (TECAN). To evaluate changes in proliferation, NB was pulsed for 10 minutes in CellTrace Violet (2 μM, Invitrogen) and seeded at 100,000 cells per well in a 12-well tissue culture-treated plate. Monocytes were added directly to the NB monolayer at a density of 100,000 per well and incubated for four days. CellTrace Violet expression was analyzed by flow cytometry.
# To evaluate the expression of TNFα in NB and monocytes, cells were first stimulated with LPS (50 ng/mL) in the presence of GolgiStop (BD Biosciences) and fixed using CytoFix/Cytoperm buffer (BD Biosciences). Cells were then stained with TNFα-PE (BD Biosciences). To evaluate the expression of TNFR1 and TNFR2 on NB and monocytes, cells were stained with TNFR1-BV421 and TNFR2-APC (BD Biosciences) in FACS staining buffer containing 0.05% sodium azide to prevent receptor/antibody processing. To estimate changes in NF-kB expression, treated co-cultures were first stained with ZombieViolet (1 μL/test, Biolegend) to counterstain dead cells and APC-H7 CD45 and/or FITC-CD14 to label monocytes for 20 minutes at room temperature. […] All flow samples were run using an LSRII 5-laser flow cytometer (Texas Children's Hospital Cancer Center Flow Cytometry Core, Houston, Tex.) and analyzed using FlowJo Software (Treestar).
substance,measurement,setting,value
etanercept,vessel formation by CD31 immunofluorescence,[1]; vs IgG control,failed to form distinct vessels
same,average area of CD31+ regions per FOV,[1]; vs control,significantly smaller
same,vessel length (maximum linear distance across CD31+ regions),[1]; vs control,significantly shorter
same,reversal of IκBα degradation in NB,"[2]; CHLA-255 + monocytes, 10 μg/mL etanercept, 24 hours (FIG. 15D)",partial
same,IκBα levels in NB cells,"[2]; SK-N-AS + monocytes, etanercept, 24 hours",restored IκBα levels to the levels found in NB cells cultured alone
